Results reported in article PMC7335359, “Design and Synthesis of Dihydroxamic Acids as HDAC6/8/10 Inhibitors” (Chemmedchem, 2020).

What was measured:
[1] = target: T1, HDAC8 (Homo sapiens, UniProt Q9BY41); assay: HDAC-Glo I/II enzymatic assay, HDAC8; assay type: biochemical; settings: read-out: HDAC8 pIC50 (converted)
T1 construct: purchased BPS Bioscience 50008
T1 sequence (Q9BY41 1-377): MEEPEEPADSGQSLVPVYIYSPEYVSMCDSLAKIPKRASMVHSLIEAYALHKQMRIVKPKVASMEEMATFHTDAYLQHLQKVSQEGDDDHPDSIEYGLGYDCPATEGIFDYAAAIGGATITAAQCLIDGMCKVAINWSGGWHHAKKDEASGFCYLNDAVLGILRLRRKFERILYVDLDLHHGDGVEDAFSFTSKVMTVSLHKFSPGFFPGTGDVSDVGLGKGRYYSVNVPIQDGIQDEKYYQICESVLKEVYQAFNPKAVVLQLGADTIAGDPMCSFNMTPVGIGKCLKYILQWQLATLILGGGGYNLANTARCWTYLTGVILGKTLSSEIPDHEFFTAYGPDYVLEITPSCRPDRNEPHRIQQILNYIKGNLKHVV
Method: (§1) Inhibitors were tested at eight serial dilutions in triplicate ranging from 50 μM–86,7 pM (HDAC6) or 100 μM–8,67 nM (HDAC1,2,3,8). Drug dosing was performed from 10 mM and 0.1 mM DMSO stock solutions with a D300e Digital Dispenser (Tecan). HDACs (7 ng/mL for HDAC1, 10 ng/mL for HDAC2, 200 ng/mL for HDAC3/Ncor2 complex, 100 ng/mL for HDAC6, 200 ng/mL for HDAC8) and inhibitors were incubated together for 30 min at room temperature. After addition of the HDAC‐Glo™ I/II reagent, plates were shaken (800 rpm orbital shaker, 30 s), centrifuged (300 g, 1 min) and incubated at room temperature for 30 min. Luminescence was detected with a CLARIOstar (BMG Labtech) plate reader.

[2] = target: T2, HDAC2 (Homo sapiens, UniProt Q92769); assay: HDAC-Glo I/II enzymatic assay, HDAC2; assay type: biochemical; settings: read-out: HDAC2 pIC50 (converted)
T2 construct: purchased BPS Bioscience 50002
T2 sequence (Q92769 whole entry): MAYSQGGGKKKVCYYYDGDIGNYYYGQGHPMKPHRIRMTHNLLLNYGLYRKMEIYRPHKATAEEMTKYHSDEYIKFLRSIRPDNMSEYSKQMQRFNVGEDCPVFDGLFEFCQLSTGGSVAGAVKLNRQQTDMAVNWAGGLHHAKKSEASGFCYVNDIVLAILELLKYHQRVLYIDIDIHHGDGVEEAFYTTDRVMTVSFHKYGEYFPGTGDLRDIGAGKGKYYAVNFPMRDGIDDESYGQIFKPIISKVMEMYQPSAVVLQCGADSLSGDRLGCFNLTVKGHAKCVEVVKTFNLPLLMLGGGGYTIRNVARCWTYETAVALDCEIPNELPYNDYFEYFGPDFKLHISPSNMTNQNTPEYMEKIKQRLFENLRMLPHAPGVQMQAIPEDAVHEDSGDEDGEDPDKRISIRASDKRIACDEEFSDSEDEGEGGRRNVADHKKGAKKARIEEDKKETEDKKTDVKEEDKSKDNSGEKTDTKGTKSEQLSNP
Method: as §1

[3] = target: T3, HDAC6 (Homo sapiens, UniProt Q9UBN7); assay: HDAC-Glo I/II enzymatic assay, HDAC6; assay type: biochemical; settings: read-out: HDAC6 pIC50 (converted)
T3 construct: purchased BPS Bioscience 50006
T3 sequence (Q9UBN7 1-1215): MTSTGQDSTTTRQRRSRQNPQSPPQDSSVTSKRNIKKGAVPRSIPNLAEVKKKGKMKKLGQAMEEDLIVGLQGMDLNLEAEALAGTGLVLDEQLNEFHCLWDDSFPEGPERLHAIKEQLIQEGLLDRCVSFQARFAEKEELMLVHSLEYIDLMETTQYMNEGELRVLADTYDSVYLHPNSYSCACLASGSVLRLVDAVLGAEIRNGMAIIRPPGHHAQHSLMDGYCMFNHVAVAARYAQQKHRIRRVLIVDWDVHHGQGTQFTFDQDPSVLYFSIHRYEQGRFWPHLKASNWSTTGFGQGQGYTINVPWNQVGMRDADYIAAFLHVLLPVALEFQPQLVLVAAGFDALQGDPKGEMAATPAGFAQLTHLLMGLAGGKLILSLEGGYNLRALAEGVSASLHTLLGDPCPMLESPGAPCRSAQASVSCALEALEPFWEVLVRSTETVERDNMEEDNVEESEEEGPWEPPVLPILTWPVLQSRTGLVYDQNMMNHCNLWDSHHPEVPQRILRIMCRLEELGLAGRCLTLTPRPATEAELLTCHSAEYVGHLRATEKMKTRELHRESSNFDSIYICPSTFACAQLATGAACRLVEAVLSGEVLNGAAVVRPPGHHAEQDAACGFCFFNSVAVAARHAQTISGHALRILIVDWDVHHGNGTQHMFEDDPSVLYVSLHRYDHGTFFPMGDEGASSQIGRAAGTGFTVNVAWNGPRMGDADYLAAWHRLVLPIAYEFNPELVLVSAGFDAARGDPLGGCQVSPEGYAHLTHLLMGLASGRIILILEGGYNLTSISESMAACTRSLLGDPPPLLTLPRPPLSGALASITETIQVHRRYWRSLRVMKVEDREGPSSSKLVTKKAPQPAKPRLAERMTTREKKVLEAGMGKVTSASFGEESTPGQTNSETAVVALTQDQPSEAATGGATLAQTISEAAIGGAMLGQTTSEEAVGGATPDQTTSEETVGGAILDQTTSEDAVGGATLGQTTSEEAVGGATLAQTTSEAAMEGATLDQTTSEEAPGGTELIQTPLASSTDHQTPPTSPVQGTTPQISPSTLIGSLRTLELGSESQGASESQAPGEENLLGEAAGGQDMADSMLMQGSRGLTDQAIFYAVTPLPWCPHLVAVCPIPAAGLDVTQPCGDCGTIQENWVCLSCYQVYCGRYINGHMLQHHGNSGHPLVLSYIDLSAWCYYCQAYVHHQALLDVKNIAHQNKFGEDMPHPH
Method: as §1

[4] = system: SK‐N‐BE(2)C neuroblastoma cell line; assay: SK-N-BE(2)C cell viability assay (CellTiter-Blue); assay type: cell-based; settings: SK-N-BE(2)C cells; for effect on cell viability: up to 100 μM
Method: Cell viability assay: SK‐N‐BE(2)C cells were cultured in Dulbecco's modified Eagle medium (DMEM, Lonza, Basel, Switzerland) supplemented with 10 % fetal calf serum (FCS, Sigma‐Aldrich) and 1 % non‐essential amino acids (NEAA, Lonza). SK‐N‐BE(2)C cells were seeded from a confluent flask into 96‐well plates in 100 μL full growth medium at a density of 5×10^3 cells per well the day before treatment. Cells were treated in triplicates with drug concentrations as indicated in the respective figure. Drugs were dosed from 50 mM and 200 mM stock solutions with a D300e Digital Dispenser (Tecan) and DMSO concentrations were normalized to 0.2 % for all wells. Plates were shaken (1000 rpm orbital shaker, 30 s) and incubated under standard culture conditions for 72 h. To each well 20 μL of CellTiter‐Blue® reagent (G8081, Promega) was added, plates were shaken (600 rpm orbital shaker, 20 s) and incubated at 37 °C overnight. Fluorescence was measured (extinction/emission: 570 nm/590 nm) on a FluoStar Optima (BMG Labtech) plate reader. Cell viability was normalized with untreated positive controls and cell‐free negative controls. IC50‐values were calculated as described in the BRET assay.

IC50 [1] [nM] | IC50 [2] [nM] | IC50 [3] [nM] | IC50 ([4]; 72 h) [nM] | Structure (SMILES) | effect on cell viability [4]
66.1 | 7080 | 44.7 | – | CN(C)CCn1cc(Cc2ccc(C(=O)NO)cc2)c2cc(C(=O)NO)ccc21 [Compound 3e] | little effect
42.7 | 724 | 15.1 | – | O=C(NO)c1ccc(Cn2ncc3ccc(C(=O)NO)cc32)cc1 [Compound 3f] | –
89.1 | 9550 | 30.2 | – | CN(C)Cc1nn(Cc2ccc(C(=O)NO)cc2)c2cc(C(=O)NO)ccc12 [Compound 3g] | little effect

Further lines, the molecule ahead of its results:

Structure (SMILES) | IC50 [1] [nM] | IC50 [2] [nM] | IC50 [3] [nM] | IC50 ([4]; 72 h) [nM] | effect on cell viability [4]
CN(C)Cc1nn(Cc2ccc(C(=O)NO)cc2)c2ccccc12 [Compound 1g] | 851 | – | – | – | –
O=C(NO)c1ccc(Cn2ccc3ccc(C(=O)NO)cc32)cc1 [Compound 3a] | 67.6 | 2240 | 18.2 | – | –
CN(C)Cc1cn(Cc2ccc(C(=O)NO)cc2)c2cc(C(=O)NO)ccc12 [Compound 3b] | 166 | 5370 | 75.9 | – | –
CN1CCc2c(c3ccc(C(=O)NO)cc3n2Cc2ccc(C(=O)NO)cc2)C1 [Compound 3c] | 513 | 4170 | 47.9 | – | –
O=C(NO)c1ccc(Cc2c[nH]c3ccc(C(=O)NO)cc23)cc1 [Compound 3d] | 97.7 | 4680 | 22.4 | 7000 | –
